This is an account of results in PMC6522510 (Nature Communications, 2019).

Among the test systems are CMS; MOLM-13; U937; CMK; ML-2; MV4-11; CHRF288-11; M07e.
Common to all, as to parameters: species or system AML cell lines (8); Primary HTS, single concentration about 10 uM, Cell Titer Glo viability; log10 luminescence, per cent inhibition relative to cycloheximide control
Common to all, as to conditions: 72 h, relative to cycloheximide control, log10 luminescence, inhibitor

Structures can show the parent of a compound that is named as a salt. Where two headings read alike, the source gives them in different places.

For the molecule `Cn1cc(C2=C(c3cn(CCCCN)c4ccccc34)C(=O)NC2=O)c2ccccc21` [SJ000580952-1], the CMS %inh in the assay with CMS turned out to be 1.981%. The MOLM-13 %inh in the assay on MOLM-13 was determined as 4.295%. Further, the U937 %inh with U937 came to 11.79%. Further, in the assay with CMK, the CMK %inh was 13.68%. Further, the ML-2 %inh with ML-2 worked out at 4.061%. Further, the MV4-11 %inh in the assay with MV4-11 stood at 8.937%. In addition, in the assay with CHRF288-11, the CHRF288-11 %inh was determined as 13.76%. Further, the M07e %inh in the assay on M07e is -0.5312%.
Turning to `Nc1nonc1-c1nc2cnccc2n1C1CC1` [SJ000573161-1, SD100950-085A1], the CMS %inh with CMS stood at 4.949%. The MOLM-13 %inh in the assay with MOLM-13 was 2.819%. Also, in the assay with U937, the U937 %inh was 17.71%. Besides, the CMK %inh with CMK is given as 26.4%. In addition, in the assay with ML-2, the ML-2 %inh was 6.372%. Further, the MV4-11 %inh in the assay on MV4-11 is listed as 17.34%. Moreover, the CHRF288-11 %inh with CHRF288-11 was determined as 4.079%. Moreover, the M07e %inh in the assay with M07e is on record as -4.33%.
In the case of `O=c1c(Oc2ccc(F)cc2F)cc2cnc(NC3CCOCC3)nc2n1C1CCS(=O)(=O)CC1` [SJ000580961-1], the CMS %inh with CMS is on record as -0.4155%. For the same molecule, the MOLM-13 %inh in the assay with MOLM-13 came out at 0.9477%. In the assay with U937, the U937 %inh is 4.388%. In addition, the CMK %inh in the assay on CMK was 4.971%. Further, the ML-2 %inh in the assay with ML-2 was 0.6064%. The MV4-11 %inh with MV4-11 turned out to be 0.879%. Further, in the assay on CHRF288-11, the CHRF288-11 %inh is listed as -4.195%. In addition, the M07e %inh with M07e is on record as -1.798%.
Turning to `O=C1NC(=NCc2ccccc2Cl)S/C1=C\c1ccc2ncccc2c1` [SJ000581134-1], the CMS %inh in the assay on CMS stood at 2.499%. Further, in the assay with MOLM-13, the MOLM-13 %inh was determined as 0.6384%. In addition, the U937 %inh with U937 came out at 2.507%. Moreover, the CMK %inh with CMK was -0.8248%. The ML-2 %inh with ML-2 was determined as 1.267%. In the assay with MV4-11, the MV4-11 %inh stood at 3.2%. In addition, the CHRF288-11 %inh in the assay with CHRF288-11 was -1.242%. Moreover, the M07e %inh in the assay with M07e was determined as 4.671%.
Consider `CC(C)C(=O)OCC(=O)[C@@]12O[C@H](C3CCCCC3)O[C@@H]1C[C@H]1[C@@H]3CCC4=CC(=O)C=C[C@]4(C)[C@H]3[C@@H](O)C[C@@]12C` [SJ000565158-2, CICLESONIDE], for which, in the assay on CMS (CMS %inh, 10 µM), the CMS %inh is listed as 2.27%. In addition, in the assay on MOLM-13 (MOLM-13 %inh, 10 µM), the MOLM-13 %inh is given as -0.3458%. Also, in the assay with U937 (U937 %inh, 10 µM), the U937 %inh was 6.134%. Besides, in the assay on CMK (CMK %inh, 10 µM), the CMK %inh worked out at 0.8609%. Moreover, the ML-2 %inh with ML-2 (ML-2 %inh, 10 µM) is -2.112%. In addition, the MV4-11 %inh with MV4-11 (MV4-11 %inh, 10 µM) is -3.886%. Further, the CHRF288-11 %inh in the assay on CHRF288-11 (CHRF288-11 %inh, 10 µM) was 3.888%. Moreover, the M07e %inh in the assay with M07e (M07e %inh, 10 µM) is recorded as 1.744%.
For the molecule `C[C@]12CC[C@@H]3c4ccc(O)cc4C[C@@H](CCCCCCCCC[S+]([O-])CCCC(F)(F)C(F)(F)F)[C@H]3[C@@H]1CC[C@@H]2O` (single isomer, unassigned) [SJ000288293-4, FULVESTRANT | FULVESTRANT| FASLODEX | FASLODEX (ICI 182,780)], in the assay on CMS (CMS %inh, 10 µM), the CMS %inh is 2.909%. Moreover, in the assay on MOLM-13 (MOLM-13 %inh, 10 µM), the MOLM-13 %inh is -1.784%. Besides, the U937 %inh in the assay on U937 (U937 %inh, 10 µM) is recorded as -1.083%. Moreover, the CMK %inh in the assay with CMK (CMK %inh, 10 µM) was -2.475%. The ML-2 %inh with ML-2 (ML-2 %inh, 10 µM) is listed as 1.626%. Moreover, the MV4-11 %inh in the assay on MV4-11 (MV4-11 %inh, 10 µM) came to 6.552%. The CHRF288-11 %inh with CHRF288-11 (CHRF288-11 %inh, 10 µM) is on record as -3.752%. In addition, in the assay on M07e (M07e %inh, 10 µM), the M07e %inh was determined as 2.696%.
In the case of `CS(=O)(=O)CCNCc1ccoc1-c1ccc2ncnc(Nc3ccc(OCc4ccccc4)cc3)c2c1` [SJ000573022-1, U12271/142/3], the CMS %inh in the assay with CMS is listed as -1.789%. Further, the MOLM-13 %inh in the assay with MOLM-13 worked out at 26.01%. The U937 %inh in the assay on U937 was -0.4603%. The CMK %inh in the assay on CMK was 1.228%. In addition, the ML-2 %inh in the assay with ML-2 was determined as 0.6017%. Also, in the assay with MV4-11, the MV4-11 %inh came to 13.73%. For the same molecule, the CHRF288-11 %inh with CHRF288-11 is on record as 3.335%. In the assay with M07e, the M07e %inh is listed as 4.198%.
`CCn1c(-c2nonc2N)nc2c(C#CC(C)(C)O)ncc(OCC3CCNCC3)c21` [SJ000573338-1, N3180-49-A1]: in the assay with CMS, the CMS %inh was 4.398%. In addition, in the assay with MOLM-13, the MOLM-13 %inh is 4.413%. Also, the U937 %inh with U937 was 25.28%. Further, in the assay with CMK, the CMK %inh came out at 1.889%. The ML-2 %inh in the assay with ML-2 is 1.732%. The MV4-11 %inh with MV4-11 is given as 8.685%. For the same molecule, in the assay on CHRF288-11, the CHRF288-11 %inh is reported as -0.2898%. Also, in the assay on M07e, the M07e %inh is -1.564%.
As for `CC(C)(O)[C@H]1O[C@H]2CC[C@@]3(C)[C@@](O)(CC[C@H]4Cc5c([nH]c6ccccc56)[C@@]43C)C2=CC1=O` [SJ000561050-1, PAXILLINE], the CMS %inh in the assay on CMS worked out at 1.09%. Also, the MOLM-13 %inh in the assay on MOLM-13 came to 2.78%. The U937 %inh in the assay on U937 came out at 7.084%. Also, the CMK %inh in the assay on CMK came out at 7.96%. The ML-2 %inh in the assay with ML-2 came out at 3.934%. Besides, the MV4-11 %inh in the assay on MV4-11 is 1.599%. Also, the CHRF288-11 %inh in the assay with CHRF288-11 was determined as 3.611%. Also, in the assay with M07e, the M07e %inh was -0.09318%.
Consider `COc1ccc(S(=O)(=O)N2CCN(C(=O)c3ccc(-c4ccccc4)cc3)CC2C(=O)NO)cc1` (centres unmarked) [SJ000556700-1, N-HYDROXY-1-(4-METHOXYPHENYL)SULFONYL-4-(4-BIPHENYLCARBONYL)PIPERAZINE-2-CARBOXAMIDE], for which the CMS %inh in the assay on CMS was 90.96%. Moreover, the MOLM-13 %inh in the assay with MOLM-13 is 33.07%. Further, the U937 %inh in the assay on U937 came to 72.9%. Besides, the CMK %inh in the assay on CMK was 129.1%. Further, in the assay on ML-2, the ML-2 %inh is listed as 62.36%. The MV4-11 %inh in the assay with MV4-11 is reported as 72.89%. In addition, the CHRF288-11 %inh in the assay on CHRF288-11 came out at 142.9%. In the assay on M07e, the M07e %inh is 105.4%.
As to `Clc1ccc(CNc2nccc(-c3cnn4ncccc34)n2)cc1` [SJ000573234-1, U16767/129/1], the CMS %inh with CMS is 12.69%. Besides, the MOLM-13 %inh in the assay with MOLM-13 worked out at 8.357%. In the assay on U937, the U937 %inh was 20.4%. The CMK %inh in the assay with CMK is recorded as 3.942%. In addition, in the assay with ML-2, the ML-2 %inh was found to be 6.981%. In addition, the MV4-11 %inh with MV4-11 was determined as 36.98%. Moreover, the CHRF288-11 %inh with CHRF288-11 stood at 14.43%. In addition, the M07e %inh in the assay on M07e was found to be 7.216%.
Turning to `NS(=O)(=O)c1ccc(Nc2cc(-c3ccc(O)c(F)c3)n[nH]2)cc1` [SJ000573315-1, T350/112/30], the CMS %inh with CMS is reported as -2.048%. Besides, the MOLM-13 %inh in the assay with MOLM-13 is 77.64%. The U937 %inh with U937 is reported as 0.1443%. In addition, in the assay with CMK, the CMK %inh is -1.653%. Moreover, the ML-2 %inh with ML-2 is reported as 0.5816%. Besides, the MV4-11 %inh in the assay with MV4-11 was 53.96%. In the assay with CHRF288-11, the CHRF288-11 %inh is -4.039%. The M07e %inh with M07e was -0.4073%.
For the molecule `CCn1c(-c2nonc2N)nc2cnc(Oc3cccc(NC(=O)c4ccc(OCCN5CCOCC5)cc4)c3)cc21` [SJ000573222-1, HC204505-099A1], in the assay with CMS, the CMS %inh was 9.487%. The MOLM-13 %inh in the assay with MOLM-13 turned out to be 15.66%. For the same molecule, the U937 %inh with U937 was determined as 38.21%. Besides, in the assay with CMK, the CMK %inh came out at 59.96%. Further, the ML-2 %inh in the assay on ML-2 came out at 11.73%. In the assay with MV4-11, the MV4-11 %inh is given as 34.29%. In the assay with CHRF288-11, the CHRF288-11 %inh was 16.4%. Besides, the M07e %inh with M07e is -2.093%.
Turning to `COc1cc2nc(N3CCN(C(=O)C4COc5ccccc5O4)CC3)nc(N)c2cc1OC` (centres unmarked) [SJ000113084-6, DOXAZOSIN MESYLATE], the CMS %inh with CMS stood at 0.401%. Further, the MOLM-13 %inh with MOLM-13 came out at 9.986%. The U937 %inh with U937 was determined as 1.071%. Also, the CMK %inh in the assay on CMK was determined as 9.497%. Moreover, the ML-2 %inh with ML-2 was -0.964%. Moreover, in the assay on MV4-11, the MV4-11 %inh was -1.195%. In the assay on CHRF288-11, the CHRF288-11 %inh is given as 36.53%. For the same molecule, in the assay with M07e, the M07e %inh is on record as -1.557%.
Regarding `CS(=O)(=O)CCCn1c(=O)c(Oc2ccc(F)cc2F)cc2cnc(NC3CCOCC3)nc21` [SJ000581074-1], the CMS %inh in the assay on CMS was -2.642%. For the same molecule, the MOLM-13 %inh in the assay with MOLM-13 is -2.241%. The U937 %inh in the assay with U937 worked out at 1.649%. The CMK %inh in the assay with CMK is reported as -0.8153%. In addition, the ML-2 %inh in the assay with ML-2 amounted to 1.736%. Also, the MV4-11 %inh with MV4-11 was -0.6859%. Also, in the assay on CHRF288-11, the CHRF288-11 %inh is 5.377%. The M07e %inh in the assay on M07e came out at 4.622%.
As for `NC(=O)c1cc(-c2ccc(F)cc2)cc(-c2ccncc2)c1N` [SJ000573019-1, R12070/183/1], the CMS %inh with CMS is -0.425%. For the same molecule, the MOLM-13 %inh in the assay on MOLM-13 is recorded as 2.771%. For the same molecule, the U937 %inh in the assay with U937 is -0.8611%. For the same molecule, in the assay on CMK, the CMK %inh is 2.8%. In addition, in the assay on ML-2, the ML-2 %inh is reported as -4.125%. In addition, the MV4-11 %inh in the assay with MV4-11 is -5.414%. In the assay with CHRF288-11, the CHRF288-11 %inh is reported as 0.09024%. Moreover, the M07e %inh with M07e is -3.642%.
